In patent US20230181609A1, “IMMUNOMODULATORY OLIGOSACCHARIDES” (The Regents of the University of California, priority 2017, published 2023):

Key:
[1] = background statement; cited from earlier work
[2] = tested on: IL-6 and IL-1β mRNA expression in LPS-activated RAW 264.7 cells; assay: Pro-inflammatory cytokine mRNA expression (RT-PCR) in LPS-stimulated RAW 264.7 macrophages; format: cell-based, murine
Experimental: RAW246.7 cells were exposed to LPS either alone or in combination with either pooled human milk oligosaccharides (HMOs), or 3′-sialyllactose (3′SL) or 2′-fucosyllactose (2′FL). After 6 hours, IL-6 (A) and IL-1β (B) mRNA levels were measured by RT-PCR and are plotted as mean±standard deviation (n=8) relative the respective mRNA levels in cells that were exposed to LPS alone (**p<0.01; ***p<0.001). HMOs are a group of more than 150 different structurally distinct oligosaccharides and their composition follows a basic structural blueprint (C), containing five monosaccharide building blocks: glucose (dark gray circle), galactose (light gray circle), N-acetylglucosamine (dark gray square), fucose (gray triangle) and sialic acid (gray diamond). 3′SL contains lactose with sialic acid at the terminal end; 2′FL contains lactose with fucose at the terminal end.
Oligosaccharides Reduce Pro-Inflammatory Cytokine mRNA Expression in Stimulated Macrophages. HMOs were first isolated and purified from pooled human donor milk (pHMO) by using polymixin B affinity chromatography to remove any lipopolysaccharide (LPS) contamination. RAW 264.7 cells, a murine macrophage cell line, were then incubated with LPS (10 ng/mL) and pHMO (500 ηg/mL) for 6 hours. RT-PCR was used to measure cytokine mRNA expression.
A multi-dimensional chromatography approach was used that separates pHMO first by charge and then by size. […] To exclude that the observed effect was due to impurities or contaminations from the isolation process, the results were confirmed with synthetized and commercially available 3′SL. […] Other oligosaccharides like 2′-fucosyllactose (2′FL), where the terminal monosaccharide is fucose instead of sialic acid (see FIG. 1C), had no effect, emphasizing that the anti-inflammatory effect of 3′SL in macrophages is specific to the structure of 3′SL.

[3] = tested on: primary mouse cells (bone marrow derived macrophages); assay: Pro-inflammatory cytokine expression in primary mouse bone marrow derived macrophages; format: cell-based
From the text: (§1) Accordingly, the results with 3′SL translate to primary cells as well as to human macrophages.

[4] = tested on: human THP-1 monocytic cell line; assay: Pro-inflammatory cytokine expression in human THP-1 monocytic cell line; format: cell-based
From the text: as §1

[5] = tested on: collagen antibody-induced arthritis (CAIA); assay: Collagen antibody-induced arthritis (CAIA) mouse model; format: in vivo, female BALB/c mice
Experimental: Oral gavage of 3′SL (20 mg thrice daily, beginning at the time of LPS trigger) reduces baseline-corrected ankle swelling (A) and clinical pathology score 28 (B) over the course of the study. […] (*p<0.05, **p<0.01, ***p<0.001).
Rheumatoid Arthritis In vivo Experimental Design. Macrophages and the pro-inflammatory cytokines IL-6 and IL-1β are known to perform a major role in the development and progression of joint destruction in animal models and patients with RA. […] Next, it was asked whether or not the in vitro results translate to an in vivo model. 3′SL efficacy in a collagen antibody-induced arthritis (CAIA) model was tested in mice. In the CAIA model, arthritis is induced by systemic administration of a cocktail of monoclonal antibodies that target various regions of collagen type II, which is one of the major constituents of articular cartilage matrix proteins, followed by the administration of endotoxin (LPS) on day 3. The high uptake rate in the CAIA model and the capacity to synchronize the development of arthritis from the time of antibody injection, makes this a relatively straightforward model that is used to address questions of pathogenic mechanisms and to screen candidate therapeutic agents.
8-week old female BALB/c mice were injected with 1.5 mg of Arthrogen-CIA monoclonal antibody cocktail (Chondrex, Inc.). Three days later, the mice were injected with 25 μg of LPS. Beginning with the time of LPS administration and followed for the next 11 consecutive days, mice were orally gavaged thrice daily with either 3′SL (20 mg in saline) or saline alone as control. With the tester blinded to the study groups, arthritis in each limb was determined once per day. […] By adding together, the scores of all four limbs, the maximum score per mouse is 28. In addition, a caliper was placed across the ankle joint at the widest point to measure ankle thickness in both hind limbs daily. 14 days after antibody cocktail administration, mice were euthanized and hind paws collected and processed for histology. H&E—as well as Toluidine blue-stained sections were scored from 0 to 4 for inflammation, bone erosion and cartilage depletion based on a previously validated scoring system.

[6] = RAW 264.7 cells, LPS 10 ng/mL, 6 hours, compared to LPS alone
[7] = 20 mg in saline, oral gavage thrice daily from LPS administration, vs saline
[8] = hind paws, day 14, scored 0 to 4, 20 mg oral gavage thrice daily

| Structure (SMILES) | digestion in the stomach and absorption [1] | tolerability [1] | IC50 for reducing IL-6 and IL-1β mRNA expression (dose-range finding studies) ([2]; LPS-stimulated macrophages) | IL-1β mRNA level [2, 6] | IL-6 mRNA level [2, 6] | pro-inflammatory cytokine expression [3] | pro-inflammatory cytokine expression [4] | Baseline-corrected ankle thickness (paw swelling) [5, 7] | clinical index score 28 [5, 7] | adverse effects ([5]; 14-day study period, 20 mg oral gavage thrice daily) | histology score for cartilage damage [5, 8] | histology score for erosion [5, 8] | histology score for inflammation [5, 8] |
| --- | --- | --- | --- | --- | --- | --- | --- | --- | --- | --- | --- | --- | --- |
| CC(=O)N[C@H]1[C@H](O[C@H]2[C@@H](O)[C@@H](CO)O[C@@H](O[C@H]3[C@H](O)[C@@H](O)C(O)O[C@@H]3CO)[C@@H]2O)O[C@H](CO)[C@@H](O[C@@H]2O[C@H](CO)[C@H](O)[C@H](O)[C@H]2O)[C@@H]1O (mixture of isomers) [LNnT, lacto-N-(neo)tetraose] | remain undigested in the stomach and are absorbed intact in the lower gastrointestinal tract | well tolerated |  |  |  |  |  |  |  |  |  |  |  |
| CC(=O)N[C@H]1[C@H]([C@H](O)[C@H](O)CO)O[C@@](O[C@H]2[C@@H](O)[C@@H](CO)O[C@@H](O[C@H]3[C@H](O)[C@@H](O)C(O)O[C@@H]3CO)[C@@H]2O)(C(=O)O)C[C@@H]1O (stereo partly shown) [3′SL, 3′-sialyllactose] |  |  | around 15 μg/mL | most effective | most effective | reduced | reduced | significantly reduced | significantly reduced | No adverse effects | significantly lower | significantly lower | significantly lower |
